Experimental data published in ChEMBL document CHEMBL1126862, “Substituted 3-phenylpiperidines: new centrally acting dopamine autoreceptor antagonists” (J Med Chem, 1993).

How the values were obtained:
Rattus norvegicus [1] = test: Evaluated for DOPA accumulation in limbic region of nonpretreated rat at 13 umol / kg administered subcutaneously; format: functional, Limbic system
Rattus norvegicus [2] = species on record: Rattus norvegicus; test: Evaluated for rat locomotor activity in nonhabituated rats at 100 umol / kg; format: functional
Rattus norvegicus [3] = test: Evaluated in rat accumbens for the effect on DOPAC release and metabolism in brain dialysis model after administration of 50 umol / kg subcutaneously; format: functional
Rattus norvegicus [4] = species on record: Rattus norvegicus; test: Evaluated for rat locomotor activity in nonpretreated habituated rats at 100 umol / kg; format: functional; parameters: unit not given beside the values
Rattus norvegicus [5] = test: Evaluated for DOPA accumulation in limbic region of nonpretreated rat at 52 umol / kg administered subcutaneously; format: functional, Limbic system
Rattus norvegicus [6] = test: Evaluated in rat accumbens for the effect on dopamine release and metabolism in brain dialysis model after administration of 50 umol / kg subcutaneously; format: functional
Rattus norvegicus [7] = test: Evaluated for DOPA accumulation in striatum of reserpine pretreated rat at 100 umol / kg administered intraperitoneally; format: functional
D(2) dopamine receptor [8] = molecular target: T1, D(2) dopamine receptor (Bos taurus, UniProt P20288); test: Binding towards Dopamine receptor D2 expressed in CHO-K1 cells using [3H]U-86170; format: cell-based
D(2) dopamine receptor [9] = molecular target: T2, D(2) dopamine receptor (Rattus norvegicus, UniProt P61169); test: Evaluated for binding towards Dopamine receptor D2 using [3H]N-0437 as radioligand from rat striatal membrane
Rattus norvegicus [10] = test: Evaluated for DOPA accumulation in striatum of nonpretreated rat at 52 umol / kg administered subcutaneously; format: functional
Rattus norvegicus [11] = test: Evaluated for DOPA accumulation in limbic region of reserpine pretreated rat at 100 umol / kg administered intraperitoneally; format: functional, Limbic system
D(2) dopamine receptor [12] = molecular target: T1, D(2) dopamine receptor; test: Evaluated for binding towards Dopamine receptor D2 using [3H]-spiperone as radioligand, in cloned mammalian receptors expressed in CHO-K1 cells; format: cell-based
Rattus norvegicus [13] = species on record: Rattus norvegicus; test: Evaluated for rat locomotor activity in nonpretreated habituated rats at 25 umol / kg; format: functional
D(4) dopamine receptor = molecular target: T3, D(4) dopamine receptor (Homo sapiens, UniProt P21917)
T3 sequence (P21917 whole entry): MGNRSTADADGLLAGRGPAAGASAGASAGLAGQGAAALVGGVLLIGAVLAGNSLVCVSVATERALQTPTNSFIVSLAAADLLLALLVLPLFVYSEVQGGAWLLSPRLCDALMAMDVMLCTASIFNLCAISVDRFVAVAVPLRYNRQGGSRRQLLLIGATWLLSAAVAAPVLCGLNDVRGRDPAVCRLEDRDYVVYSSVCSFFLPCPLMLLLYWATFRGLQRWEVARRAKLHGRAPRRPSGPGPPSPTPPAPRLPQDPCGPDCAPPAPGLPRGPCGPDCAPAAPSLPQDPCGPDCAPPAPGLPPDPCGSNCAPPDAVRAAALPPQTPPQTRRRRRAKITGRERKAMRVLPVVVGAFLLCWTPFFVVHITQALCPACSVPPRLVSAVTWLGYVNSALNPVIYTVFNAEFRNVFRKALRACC
Description: Binding towards dopamine receptor D4 expressed in CHO-K1 cells using [3H]spiperone

Rattus norvegicus [14] = species on record: Rattus norvegicus; test: Rat locomotor activity in reserpine pretreated rats and accumulated counts / 30 min is calculated; format: functional
Rattus norvegicus [15] = test: Evaluated for DOPA accumulation in striatum of nonpretreated rat at 13 umol / kg administered subcutaneously; format: functional
Rattus norvegicus [16] = test: Evaluated for rat locomotor activity in nonhabituated rats at 13 umol / kg administered intraperitoneally; format: functional
D(2) dopamine receptor [17] = molecular target: T2, D(2) dopamine receptor; test: Binding towards Dopamine receptor D2 using [3H]spiperone from rat striatal membrane
D(3) dopamine receptor = D(3) dopamine receptor (Homo sapiens, UniProt P35462)
Description: Binding towards Dopamine receptor D3 expressed in CHO-K1 cells using [3H]spiperone

Rattus norvegicus [18] = test: Evaluated in rat striatum for the effect on DOPAC release and metabolism in brain dialysis model after administration of 50 umol / kg subcutaneously; format: functional; parameters: unit not given beside the values
Rattus norvegicus [19] = test: Evaluated in rat striatum for the effect on dopamine release and metabolism in brain dialysis model after administration of 50 umol / kg subcutaneously; format: functional; parameters: unit not given beside the values
Rattus norvegicus [20] = species on record: Rattus norvegicus; test: Evaluated for rat locomotor activity in nonhabituated rats at 25 umol / kg; format: functional
Rattus norvegicus [21] = test: Evaluated for rat locomotor activity in nonhabituated rats at 213 umol / kg administered subcutaneously; format: functional
Rattus norvegicus [22] = test: Evaluated for DOPA accumulation in limbic region of reserpine pretreated rat at 27 umol / kg administered subcutaneously; format: functional, Limbic system
Rattus norvegicus [23] = test: Evaluated for DOPA accumulation in limbic region of nonpretreated rat at 25 umol / kg administered subcutaneously; format: functional, Limbic system
Rattus norvegicus [24] = test: Evaluated for 5-HTP increase in limbic region of nonpretreated rat at 27 umol / kg administered subcutaneously; format: functional, Limbic system
Rattus norvegicus [25] = test: Evaluated for 5-HTP increase in hemisphere region of nonpretreated rat at 27 umol / kg administered subcutaneously; format: functional
Rattus norvegicus [26] = test: Evaluated for DOPA accumulation in striatum of nonpretreated rat at 25 umol / kg administered subcutaneously; format: functional
Rattus norvegicus [27] = test: Evaluated for 5-HTP increase in hemisphere region of nonpretreated rat at 200 umol / kg administered subcutaneously; format: functional
[28] = molecular target: T4, Sigma non-opioid intracellular receptor 1 (Rattus norvegicus, UniProt Q9R0C9); test: Binding affinity for sigma receptor using 2 nM of [3H]DTG as radioligand, in membranes from brain minus cerebellum; format: tissue-based
Rattus norvegicus [29] = test: Evaluated for rat locomotor activity in nonhabituated rats at 200 umol / kg administered subcutaneously; format: functional
Rattus norvegicus [30] = test: Evaluated for DOPA accumulation in striatum of nonpretreated rat at 200 umol / kg administered subcutaneously; format: functional
Rattus norvegicus [31] = test: Evaluated for 5-HTP increase in limbic region of nonpretreated rat at 200 umol / kg administered subcutaneously; format: functional, Limbic system
Rattus norvegicus [32] = test: Evaluated for DOPA accumulation in limbic region of reserpine pretreated rat at 52 umol / kg administered subcutaneously; format: functional, Limbic system
Rattus norvegicus [33] = test: Evaluated for DOPA accumulation in limbic region of nonpretreated rat at 200 umol / kg administered subcutaneously; format: functional, Limbic system
Rattus norvegicus [34] = test: Evaluated in rat accumbens for the effect onDOPAC release and metabolism in brain dialysis model after administration of 50 umol / kg subcutaneously; format: functional
Rattus norvegicus [35] = test: Evaluated for rat locomotor activity in nonhabituated rats at 52 umol / kg administered subcutaneously; format: functional
Rattus norvegicus [36] = test: Evaluated for rat locomotor activity in nonhabituated rats at 13 umol / kg administered subcutaneously; format: functional
Rattus norvegicus [37] = test: Evaluated for DOPA accumulation in striatum of reserpine pretreated rat at 52 umol / kg administered subcutaneously; format: functional
Rattus norvegicus [38] = test: Evaluated for DOPA accumulation in striatum of nonpretreated rat at 100 umol / kg administered subcutaneously; format: functional
Rattus norvegicus [39] = test: Evaluated for 5-HTP increase in limbic region of nonpretreated rat at 100 umol / kg administered subcutaneously; format: functional, Limbic system
Rattus norvegicus [40] = test: Evaluated for 5-HTP increase in hemisphere region of nonpretreated rat at 100 umol / kg administered subcutaneously; format: functional
[41] = Half life was estimated from the elimination phase of the blood concentration curves after peroral administration; format: ADME, organism-based; details: po
[42] = molecular target: T4, Sigma non-opioid intracellular receptor 1; test: Binding effinity for sigma receptor using 2 nM of [3H]DTG as radioligand, in membranes from brain minus cerebellum; format: tissue-based

Chain of D(3) dopamine receptor (P35462 whole entry): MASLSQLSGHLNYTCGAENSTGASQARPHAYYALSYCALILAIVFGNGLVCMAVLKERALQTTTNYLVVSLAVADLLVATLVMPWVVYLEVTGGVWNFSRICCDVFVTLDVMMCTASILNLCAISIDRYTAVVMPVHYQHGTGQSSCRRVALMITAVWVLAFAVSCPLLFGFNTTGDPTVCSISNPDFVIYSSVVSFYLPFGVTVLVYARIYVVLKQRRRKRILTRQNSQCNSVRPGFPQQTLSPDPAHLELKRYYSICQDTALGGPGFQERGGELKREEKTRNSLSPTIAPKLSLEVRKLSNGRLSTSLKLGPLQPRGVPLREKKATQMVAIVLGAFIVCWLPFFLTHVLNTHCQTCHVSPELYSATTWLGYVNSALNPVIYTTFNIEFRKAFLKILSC
T1 sequence (P20288 whole entry): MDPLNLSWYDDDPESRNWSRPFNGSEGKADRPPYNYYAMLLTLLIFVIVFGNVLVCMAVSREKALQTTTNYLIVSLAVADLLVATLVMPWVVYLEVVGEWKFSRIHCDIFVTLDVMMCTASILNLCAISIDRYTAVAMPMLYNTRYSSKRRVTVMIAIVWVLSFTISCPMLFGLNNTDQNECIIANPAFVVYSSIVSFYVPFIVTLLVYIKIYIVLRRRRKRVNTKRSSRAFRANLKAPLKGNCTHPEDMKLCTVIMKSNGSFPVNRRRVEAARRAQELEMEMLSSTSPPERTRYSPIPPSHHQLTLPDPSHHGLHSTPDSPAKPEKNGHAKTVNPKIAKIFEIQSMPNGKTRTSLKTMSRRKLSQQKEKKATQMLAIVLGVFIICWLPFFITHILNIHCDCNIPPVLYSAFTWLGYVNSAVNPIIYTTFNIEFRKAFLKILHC
T2 sequence (P61169 whole entry): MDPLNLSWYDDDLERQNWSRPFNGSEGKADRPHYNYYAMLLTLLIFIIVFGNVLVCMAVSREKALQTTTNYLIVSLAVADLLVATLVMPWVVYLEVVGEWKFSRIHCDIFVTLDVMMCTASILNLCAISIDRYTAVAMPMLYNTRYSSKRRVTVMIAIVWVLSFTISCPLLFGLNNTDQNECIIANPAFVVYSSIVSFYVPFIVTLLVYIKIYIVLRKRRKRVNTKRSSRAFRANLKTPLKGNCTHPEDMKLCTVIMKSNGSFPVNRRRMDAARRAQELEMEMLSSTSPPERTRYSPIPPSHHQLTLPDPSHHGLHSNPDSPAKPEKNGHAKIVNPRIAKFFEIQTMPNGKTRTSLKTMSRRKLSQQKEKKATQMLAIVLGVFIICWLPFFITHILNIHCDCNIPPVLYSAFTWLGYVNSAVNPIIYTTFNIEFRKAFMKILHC
T4 sequence (Q9R0C9 whole entry): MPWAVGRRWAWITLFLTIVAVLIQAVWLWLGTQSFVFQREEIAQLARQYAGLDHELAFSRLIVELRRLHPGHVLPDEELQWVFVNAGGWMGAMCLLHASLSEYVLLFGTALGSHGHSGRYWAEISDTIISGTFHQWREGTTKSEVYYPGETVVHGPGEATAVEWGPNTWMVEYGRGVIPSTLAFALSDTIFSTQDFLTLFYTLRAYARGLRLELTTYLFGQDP

Compound | Activity (Rattus norvegicus [1]) | Activity (Rattus norvegicus [2]) | Activity (Rattus norvegicus [3]) | Activity (Rattus norvegicus [4]) | Activity (Rattus norvegicus [5]) | Activity (Rattus norvegicus [6]) | Activity (Rattus norvegicus [7]) | Ki (D(2) dopamine receptor [8]) [µM] | Ki (D(2) dopamine receptor [9]) [µM] | Activity (Rattus norvegicus [10]) | Ki (D(2) dopamine receptor [12]) [µM] | Ki (D(4) dopamine receptor) [µM] | Activity (Rattus norvegicus [14]) | Ki (D(2) dopamine receptor [17]) [µM] | Ki (D(3) dopamine receptor) [µM] | Activity (Rattus norvegicus [18]) | Activity (Rattus norvegicus [19]) | Activity (Rattus norvegicus [20]) | Activity (Rattus norvegicus [23]) | Activity (Rattus norvegicus [26]) | also measured
CCCN(CCC)[C@@H]1CCc2c(OC)cccc2[C@@H]1C | 180 | 70 | 207 | 220 | 245 | 231 | 109 | 0.013 | 0.1 | 370 | 0.018 | 0.048 | 29 | 0.07 | 0.004 | 307 | 209 | – | – | – | Activity (Rattus norvegicus [11]): 116; Activity (Rattus norvegicus [13]): 220; Activity (Rattus norvegicus [15]): 270; Activity (Rattus norvegicus [16]): 140
CCCN1CCCC(c2cccc(O)c2)C1 (single isomer, unassigned; (-)) | – | – | 115 | 208 | – | 98 | – | 0.0085 | – | – | 0.137 | 0.13 | 12 | – | – | 70 | 700 | 74 | 91 | 147 | Activity (Rattus norvegicus [21]): 40; Activity (Rattus norvegicus [22]): 30; Activity (Rattus norvegicus [24]): 89; Activity (Rattus norvegicus [25]): 87
CCCN1CCCC(c2cccc(C#N)c2)C1 (single isomer, unassigned; (+)) | – | – | – | 559 | – | – | 81 | 1.72 | 4.9 | – | > 2 | > 0.933 | 6 | 12.6 | > 1.42 | – | – | 104 | 109 | 84 | Activity (Rattus norvegicus [27]): 94; IC50 [28]: 0.52 µM; Activity (Rattus norvegicus [29]): 118; Activity (Rattus norvegicus [30]): 78; Activity (Rattus norvegicus [31]): 71; Activity (Rattus norvegicus [32]): 93; Activity (Rattus norvegicus [33]): 94
CCCN[C@@H]1CCc2c(OC)cccc2[C@@H]1C | 223 | – | – | 350 | 253 | 313 | – | 0.145 | 0.3 | 400 | 0.158 | 0.117 | 11 | 0.53 | 0.026 | 315 | 285 | – | – | – | Activity (Rattus norvegicus [34]): 235; Activity (Rattus norvegicus [35]): 159; Activity (Rattus norvegicus [36]): 155; Activity (Rattus norvegicus [37]): 102; Activity (Rattus norvegicus [13]): 300; Activity (Rattus norvegicus [15]): 330; Activity (Rattus norvegicus [32]): 108
CCCN1CCC[C@@H](c2cccc(OS(=O)(=O)C(F)(F)F)c2)C1 | – | 129 | 152 | – | – | 153 | 89 | – | – | – | – | – | 25 | – | – | 162 | 208 | 128 | 139 | 221 | Activity (Rattus norvegicus [38]): 264; Activity (Rattus norvegicus [39]): 102; Activity (Rattus norvegicus [40]): 108; Activity (Rattus norvegicus [11]): 94; half-life [41]: 3.5 h; IC50 [42]: 0.032 µM
